Measurements as given in the NIST ThermoML archive (doi:10.1021/je201334p).
± gives the expanded uncertainty stated by the source.

Key:
[1] = refractive index (Na D-line) (dimensionless); xn = mol fraction of the nth substance listed; details: 101 kPa, Liquid, Standard Abbe refractometry, x1 = 1
[2] = xn = mol fraction of the nth substance listed; details: 308.15 K; 101 kPa; Liquid; Sing-around technique in a fixed-path interferometer; x1 = 1
[3] = refractive index (Na D-line) (dimensionless); details: Liquid, Standard Abbe refractometry
[4] = molar heat capacity at constant pressure; details: 101.33 kPa, Liquid, Small sample (50 mg) DSC
[5] = 101 kPa, Liquid; for speed of sound: Sing-around technique in a fixed-path interferometer; for mass density: Vibrating tube method

| refractive index ([3]; 288.15 K, 101 kPa) | refractive index ([3]; 288.15 K, 101.33 kPa) | refractive index ([3]; 298.15 K, 101 kPa) | refractive index ([3]; 298.15 K, 101.33 kPa) | refractive index ([3]; 308.15 K, 101 kPa) | refractive index ([3]; 308.15 K, 101.33 kPa) | molar heat capacity at constant pressure ([4]; 288.15 K) | molar heat capacity at constant pressure ([4]; 298.15 K) | molar heat capacity at constant pressure ([4]; 308.15 K) | speed of sound ([5]; 288.15 K) | mass density ([5]; 288.15 K) | speed of sound ([5]; 298.15 K) | mass density ([5]; 298.15 K) | speed of sound ([5]; 308.15 K) | mass density ([5]; 308.15 K) | SMILES | refractive index ([1]; 288.15 K) | refractive index ([1]; 298.15 K) | refractive index ([1]; 308.15 K) | speed of sound [2] |
| --- | --- | --- | --- | --- | --- | --- | --- | --- | --- | --- | --- | --- | --- | --- | --- | --- | --- | --- | --- |
| – | – | – | – | – | – | – | – | – | – | – | – | – | – | – | O [water] + CCCC[N+]1(C)CCCC1.O=S(=O)([O-])C(F)(F)F | 1.33349 ± 0.00041 | 1.33255 ± 0.00042 | 1.33131 ± 0.00042 | 1522.3 ± 1 m/s |
| – | – | – | – | – | – | – | – | – | – | – | – | – | – | – | O [water] + CCCCn1cc[n+](C)c1.N#CN=C=[N-] | 1.33349 ± 0.00041 | 1.33255 ± 0.00042 | 1.33131 ± 0.00042 | 1522.3 ± 1 m/s |
| – | – | – | – | – | – | – | – | – | – | – | – | – | – | – | O [water] + CCCCCCn1cc[n+](C)c1.N#CN=C=[N-] | 1.33349 ± 0.00041 | 1.33255 ± 0.00042 | 1.33131 ± 0.00042 | 1522.3 ± 1 m/s |
| 1.46446 ± 0.00053 | 1.46446 ± 0.00053 | 1.46155 ± 0.00053 | 1.46155 ± 0.00053 | 1.45868 ± 0.00053 | 1.45868 ± 0.00053 | 496 ± 10 J/K/mol | 520 ± 10 J/K/mol | 535 ± 11 J/K/mol | 1436.1 ± 1.4 m/s | 1287.07 ± 0.61 kg/m3 | 1412.3 ± 1.4 m/s | 1279.41 ± 0.6 kg/m3 | 1389.6 ± 1.4 m/s | 1271.8 ± 0.59 kg/m3 | CCCC[n+]1cccc(C)c1.O=S(=O)([O-])C(F)(F)F [1-butyl-3-methylpyridinium trifluoromethanesulfonate] | – | – | – | – |
| 1.44032 ± 0.00053 | 1.44032 ± 0.00053 | 1.43755 ± 0.00053 | 1.43755 ± 0.00053 | 1.43475 ± 0.00053 | 1.43475 ± 0.00053 | – | – | – | 1414.3 ± 1.4 m/s | 1307.5 ± 0.63 kg/m3 | 1391.4 ± 1.4 m/s | 1299.55 ± 0.62 kg/m3 | 1369.1 ± 1.4 m/s | 1291.62 ± 0.61 kg/m3 | CCCCn1cc[n+](C)c1.O=S(=O)([O-])C(F)(F)F [1-butyl-3-methylimidazolium trifluoromethanesulfonate] | – | – | – | – |
| – | – | – | – | – | – | – | – | – | – | – | – | – | – | – | O [water] + CCCCn1cc[n+](C)c1.O=S(=O)([O-])C(F)(F)F | 1.33349 ± 0.00041 | 1.33255 ± 0.00042 | 1.33131 ± 0.00042 | 1522.3 ± 1 m/s |
| 1.51631 ± 0.00053 | 1.51631 ± 0.00053 | 1.5135 ± 0.00053 | 1.5135 ± 0.00053 | 1.51067 ± 0.00053 | 1.51067 ± 0.00053 | 399 ± 8 J/K/mol | 412 ± 8 J/K/mol | 420 ± 8 J/K/mol | 1774.5 ± 1.5 m/s | 1225.93 ± 0.54 kg/m3 | 1745.2 ± 1.5 m/s | 1219.26 ± 0.53 kg/m3 | 1718.4 ± 1.5 m/s | 1212.65 ± 0.52 kg/m3 | CCOS(=O)(=O)[O-].CCc1cccc[n+]1CC [1,2-diethylpyridinium ethylsulfate] | – | – | – | – |
| 1.43557 ± 0.00052 | – | 1.43289 ± 0.00052 | – | 1.43018 ± 0.00052 | – | 424 ± 8 J/K/mol | 435 ± 9 J/K/mol | 441 ± 9 J/K/mol | 1484.6 ± 1.4 m/s | 1260.33 ± 0.58 kg/m3 | 1460.1 ± 1.4 m/s | 1252.98 ± 0.57 kg/m3 | 1436.7 ± 1.4 m/s | 1245.78 ± 0.56 kg/m3 | CCCC[N+]1(C)CCCC1.O=S(=O)([O-])C(F)(F)F [1-butyl-1-methylpyrrolidinium trifluoromethanesulfonate] | – | – | – | – |
| – | – | – | – | – | – | – | – | – | – | – | – | – | – | – | O [water] + CCCC[N+]1(C)CCCC1.N#CN=C=[N-] | 1.33349 ± 0.00041 | 1.33255 ± 0.00042 | 1.33131 ± 0.00042 | 1522.3 ± 1 m/s |
| – | – | – | – | – | – | – | – | – | – | – | – | – | – | – | O [water] + CCCC[n+]1cccc(C)c1.O=S(=O)([O-])C(F)(F)F | 1.33349 ± 0.00041 | 1.33255 ± 0.00042 | 1.33131 ± 0.00042 | 1522.3 ± 1 m/s |
| 1.51603 ± 0.00052 | 1.51603 ± 0.00052 | 1.5134 ± 0.00052 | 1.5134 ± 0.00052 | 1.51077 ± 0.00052 | 1.51077 ± 0.00052 | 288 ± 6 J/K/mol | 299 ± 6 J/K/mol | 305 ± 6 J/K/mol | 1901.1 ± 1.5 m/s | 1352.86 ± 0.69 kg/m3 | 1875.8 ± 1.5 m/s | 1346.12 ± 0.68 kg/m3 | 1852.4 ± 1.5 m/s | 1339.37 ± 0.67 kg/m3 | COS(=O)(=O)[O-].C[n+]1ccccc1 [1-methylpyridinium methylsulfate] | – | – | – | – |
| – | – | – | – | – | – | – | – | – | – | – | – | – | – | – | O [water] + CCOS(=O)(=O)[O-].CCc1cccc[n+]1CC | 1.33349 ± 0.00041 | 1.33255 ± 0.00042 | 1.33131 ± 0.00042 | 1522.3 ± 1 m/s |
| – | – | – | – | – | – | – | – | – | – | – | – | – | – | – | O [water] + COS(=O)(=O)[O-].C[n+]1ccccc1 | 1.33349 ± 0.00041 | 1.33255 ± 0.00042 | 1.33131 ± 0.00042 | 1522.3 ± 1 m/s |

| SMILES | refractive index ([3]; 288.15 K, 101 kPa) | refractive index ([3]; 288.15 K, 101.33 kPa) | refractive index ([3]; 298.15 K, 101 kPa) | refractive index ([3]; 298.15 K, 101.33 kPa) | refractive index ([3]; 308.15 K, 101 kPa) | refractive index ([3]; 308.15 K, 101.33 kPa) | molar heat capacity at constant pressure ([4]; 288.15 K) | molar heat capacity at constant pressure ([4]; 298.15 K) | molar heat capacity at constant pressure ([4]; 308.15 K) | speed of sound ([5]; 288.15 K) | mass density ([5]; 288.15 K) | speed of sound ([5]; 298.15 K) | mass density ([5]; 298.15 K) | speed of sound ([5]; 308.15 K) | mass density ([5]; 308.15 K) | refractive index ([1]; 288.15 K) | refractive index ([1]; 298.15 K) | refractive index ([1]; 308.15 K) | speed of sound [2] |
| --- | --- | --- | --- | --- | --- | --- | --- | --- | --- | --- | --- | --- | --- | --- | --- | --- | --- | --- | --- |
| CCCC[N+]1(C)CCCC1.N#CN=C=[N-] [1-butyl-1-methylpyrrolidinium dicyanamide] | 1.49968 ± 0.00063 | 1.49968 ± 0.00063 | 1.49681 ± 0.00063 | 1.49681 ± 0.00063 | 1.49392 ± 0.00064 | 1.49392 ± 0.00064 | 473 ± 9 J/K/mol | 502 ± 10 J/K/mol | 521 ± 10 J/K/mol | 1836.9 ± 2.3 m/s | 1019.17 ± 1.1 kg/m3 | 1811.1 ± 2.3 m/s | 1013.53 ± 1.1 kg/m3 | 1781.9 ± 2.3 m/s | 1007.93 ± 1.1 kg/m3 | – | – | – | – |
| CCCCCCn1cc[n+](C)c1.N#CN=C=[N-] [1-hexyl-3-methylimidazolium dicyanamide] | 1.50729 ± 0.00079 | 1.50729 ± 0.00079 | 1.50415 ± 0.00079 | 1.50415 ± 0.00079 | 1.501 ± 0.00079 | 1.501 ± 0.00079 | 510 ± 10 J/K/mol | 534 ± 11 J/K/mol | 548 ± 11 J/K/mol | 1713.4 ± 3.2 m/s | 1034.76 ± 2.6 kg/m3 | 1687.7 ± 3.2 m/s | 1028.56 ± 2.6 kg/m3 | 1662.7 ± 3.2 m/s | 1022.4 ± 2.5 kg/m3 | – | – | – | – |
| CCCCn1cc[n+](C)c1.N#CN=C=[N-] [1-butyl-3-methylimidazolium dicyanamide] | 1.51213 ± 0.00065 | 1.51213 ± 0.00065 | 1.50893 ± 0.00065 | 1.50893 ± 0.00065 | 1.50578 ± 0.00065 | 1.50578 ± 0.00065 | 367 ± 7 J/K/mol | 376 ± 8 J/K/mol | 381 ± 8 J/K/mol | 1764.3 ± 2.3 m/s | 1066.58 ± 1.3 kg/m3 | 1738.1 ± 2.3 m/s | 1060.17 ± 1.2 kg/m3 | 1713.1 ± 2.3 m/s | 1053.83 ± 1.2 kg/m3 | – | – | – | – |
